Laboratory results published in patent US6525059B1, “Substituted pyrazoles as p38 kinase inhibitors” (G. D. Searle & Company, priority 1998, dated 2003).
Values joined by “and” are separate entries in the source; they are usually repeats but may differ in a detail not shown here. Identical values can stand only once. Like-named read-outs stand apart in the source and are kept apart here.

Columns and labels:
[1] = target: T1, human GST-p38 kinase alpha (Homo sapiens, UniProt Q16539); test: p38 kinase in vitro assay, second format, phosphorylation of EGFRP with 33P-ATP; type: biochemical; conditions: read-out: p38α Kinase Assay IC50
T1 construct: The coding region of the human p38a cDNA was obtained by PCR-amplification from RNA isolated from the human monocyte cell line THP.1; made in house; host or cells: E. coli DH10B
T1 sequence (Q16539 whole entry): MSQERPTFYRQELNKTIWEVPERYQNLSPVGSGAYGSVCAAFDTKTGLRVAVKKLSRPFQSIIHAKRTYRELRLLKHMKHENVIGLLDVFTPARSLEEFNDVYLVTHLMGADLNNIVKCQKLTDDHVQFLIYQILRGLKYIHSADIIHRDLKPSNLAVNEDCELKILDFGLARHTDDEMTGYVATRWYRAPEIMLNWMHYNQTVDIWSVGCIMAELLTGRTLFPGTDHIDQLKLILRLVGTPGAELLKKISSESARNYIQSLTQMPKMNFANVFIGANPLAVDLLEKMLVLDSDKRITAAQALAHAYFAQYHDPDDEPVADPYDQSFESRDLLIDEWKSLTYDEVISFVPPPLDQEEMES
Summary of the method: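 Activated human GST-p38α (pre-activated with GST-MKK6, 1 h, 30 °C) phosphorylates EGFR 21-mer peptide (200 μM) with 50 μM ATP plus γ-33P-ATP, pH 7.5, 60 min at room temperature. Unreacted ATP removed by AG 1×8 resin; supernatant scintillation-counted.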

human TNF = test: TNF inhibition: human whole blood assay; type: cell-based; conditions: Homo sapiens, LPS, read-out: TNF Inhibition-Human Whole Blood Assay
TNF-α = test: Rat assay: LPS-challenged rats, serum TNF-α by ELISA; type: in vivo; conditions: Rattus norvegicus, po; for inhibition in vivo at 3 mg/kg: Table 8, dose 3.0 mg/kg; for inhibition in vivo at 3 mg/kg / inhibition in vivo at 5 mg/kg: read-out: Rat LPS Assay % Inhibition

SMILES	melting point	IC50 ([1]; Table 10, 10% DMSO, @ 1.0 hour)	IC50 (human TNF; Table 10, human whole blood)	other results
Clc1ccc(-c2n[nH]c(N3CCN(C4CC4)CC3)c2-c2ccncc2)cc1 [Example A-322, 1-[5-(4-chlorophenyl)-4-(4-pyridinyl)-1H-pyrazol-3-yl)-4-cyclopropylpiperazine]	264 to 265 °C			IC50 ([1]; Table 8, 10% DMSO): 0.15 µM and 0.25 µM; IC50 (human TNF; Table 8, human whole blood): 4.2 µM; inhibition in vivo at 3 mg/kg (TNF-α): 51.5%
Fc1ccc(-c2[nH]ncc2-c2ccnc(Nc3ccccc3F)n2)cc1 [Example A-325, N-(2-fluorophenyl)-4-[3-(4-fluorophenyl)-1H-pyrazol-4-yl]-2-pyrimidinamine]	239 to 240 °C			IC50 ([1]; Table 8, 10% DMSO): < 0.1 µM; IC50 (human TNF; Table 8, human whole blood): 0.057 µM; inhibition in vivo at 3 mg/kg (TNF-α): 25%; inhibition in vivo at 30 mg/kg (TNF-α; Table 8, dose 30.0 mg/kg): 11%
COc1ccccc1Nc1nccc(-c2cn[nH]c2-c2ccc(F)cc2)n1 [Example A-326, 4-[3-(4-fluorophenyl)-1H-pyrazol-4-yl]-N-(2-methoxyphenyl)-2-pyrimidinamine]	265 °C (dec.)			IC50 ([1]; Table 8, 10% DMSO): 0.97 µM; IC50 (human TNF; Table 8, human whole blood): > 25 µM; inhibition in vivo at 10 mg/kg (TNF-α; Table 8, dose 10.0 mg/kg): 0%
CN1CCN(c2n[nH]c(-c3cccc(Cl)c3)c2-c2ccncc2)CC1 [Example A-327, 1-[5-(3-chlorophenyl)-4-(4-pyridinyl)-1-H-pyrazol-3-yl]-4-methylpiperazine]	229 to 231 °C			IC50 ([1]; Table 8, 10% DMSO): 0.15 µM; IC50 (human TNF; Table 8, human whole blood): 0.18 µM; inhibition in vivo at 20 mg/kg (TNF-α; Table 8, dose 20.0 mg/kg): 83%
C#CCN1CCN(c2n[nH]c(-c3ccc(Cl)cc3)c2-c2ccncc2)CC1 [Example A-333, 1-[5-(4-chlorophenyl)-4-(4-pyridinyl)-1H-pyrazol-3-yl]-4-(2-propynyl)piperazine]	247 °C (dec.)			IC50 ([1]; Table 8, 10% DMSO): 0.052 µM; IC50 (human TNF; Table 8, human whole blood): 0.585 µM; inhibition in vivo at 5 mg/kg (TNF-α; Table 8, dose 5.0 mg/kg): 69%
Cc1cc(C(=O)C(=C2SCS2)c2ccncc2)ccc1Cl [Example A-391, 1-(4-chloro-3-methylphenyl)-2-1,3-dithietan-2-ylidene-2-pyridin-4-yl-ethanone]	164 to 165 °C	4.83 µM	> 25 µM	inhibition in vivo at 20 mg/kg (TNF-α; Table 10, dose 20.0 mg/kg): 53%
Cc1cc(-c2n[nH]c(N3CCN(C)CC3)c2-c2ccncc2)ccc1Cl [Example A-407, 1-[5-(3-methyl-4-chlorophenyl)-4-(4-pyridinyl)-1H-pyrazol-3-yl]-4-methylpiperazine]	236.7 to 239.3 °C	0.18 µM	3.86 µM	inhibition in vivo at 5 mg/kg (TNF-α; Table 10, dose 5.0 mg/kg): 21%; inhibition in vivo at 20 mg/kg (TNF-α; Table 10, dose 20.0 mg/kg): 82%
Cc1ccccc1-c1n[nH]c(N2CCN(C)CC2)c1-c1ccncc1 [Example A-408, 1-[5-(2-tolyl)-4-(4-pyridinyl)-1H-pyrazol-3-yl]-4-methylpiperazine]	244 to 244.2 °C	5.59 µM	11.7 µM	inhibition in vivo at 5 mg/kg (TNF-α; Table 10, dose 5.0 mg/kg): 20%; inhibition in vivo at 20 mg/kg (TNF-α; Table 10, dose 20.0 mg/kg): 49%
CN1CCN(c2[nH]nc(-c3cccc(Br)c3)c2-c2ccncc2)CC1 [Example A-409, 1-[5-(3-bromophenyl)-4-(4-pyridinyl)-1H-pyrazol-3-yl]-4-methylpiperazine]	222.5 to 223.4 °C	0.21 µM	5.27 µM	inhibition in vivo at 5 mg/kg (TNF-α; Table 10, dose 5.0 mg/kg): 41%; inhibition in vivo at 20 mg/kg (TNF-α; Table 10, dose 20.0 mg/kg): 89%
COc1ccc(-c2[nH]nc(N3CCN(C)CC3)c2-c2ccncc2)cc1Cl [Example A-413]	272.7 to 276.4 °C	0.91 µM	6.51 µM	inhibition in vivo at 5 mg/kg (TNF-α; Table 10, dose 5.0 mg/kg): 45%; inhibition in vivo at 20 mg/kg (TNF-α; Table 10, dose 20.0 mg/kg): 85%
CN1CCN(c2[nH]nc(-c3ccc(C(C)(C)C)cc3)c2-c2ccncc2)CC1 [Example A-414, 1-[5-(4-tert-butylphenyl)-4-(4-pyridinyl)-1H-pyrazol-3-yl]-4-methylpiperazine]	243.6 to 244.3 °C	9.51 µM	11.2 µM	inhibition in vivo at 5 mg/kg (TNF-α; Table 10, dose 5.0 mg/kg): 3%; inhibition in vivo at 20 mg/kg (TNF-α; Table 10, dose 20.0 mg/kg): 14%
COc1ccc(-c2n[nH]c(N3CCN(C)CC3)c2-c2ccncc2)cc1 [Example A-415]	259 to 260.2 °C		0.51 µM	inhibition in vivo at 5 mg/kg (TNF-α; Table 10, dose 5.0 mg/kg): 17%; inhibition in vivo at 84 mg/kg (TNF-α; Table 10, dose […]): 84%
CN1CCN(c2n[nH]c(-c3ccc(I)cc3)c2-c2ccncc2)CC1 [Example A-417, 1-[5-(4-iodophenyl)-4-(4-pyridinyl)-1H-pyrazol-3-yl]-4-methylpiperazine]	265.2 to 265.8 °C	0.19 µM	12 µM	inhibition in vivo at 5 mg/kg (TNF-α; Table 10, dose 5.0 mg/kg): 40%; inhibition in vivo at 20 mg/kg (TNF-α; Table 10, dose 20.0 mg/kg): 70%
Clc1ccc(-c2n[nH]c(OC3CCOC3)c2-c2ccncc2)cc1 (stereo not shown) [Example A-443]	> 300 °C	0.47 µM	4.89 µM	
Fc1ccc(-c2n[nH]c(SCC3OCCO3)c2-c2ccncc2)cc1 [Example A-451]	202.1 to 205.4 °C	0.078 µM	15 µM	
Clc1ccc(-c2n[nH]c(SCCOC3CCCCO3)c2-c2ccncc2)cc1 (stereo not shown) [Example A-474]	163.2 to 163.5 °C		0.97 µM	inhibition in vivo at 20 mg/kg (TNF-α; Table 10, dose 20.0 mg/kg): 59%
N#CCCSc1[nH]nc(-c2ccc(Cl)cc2)c1-c1ccncc1 [Example A-483]	205.7 to 206.5 °C	0.3 µM	0.51 µM	

More lines, main results first:

melting point	IC50 ([1]; Table 10, 10% DMSO, @ 1.0 hour)	IC50 (human TNF; Table 10, human whole blood)	SMILES	other results
185.3 to 185.4 °C	15.1 µM	> 25 µM	O=C(C(=C1SCS1)c1ccncc1)c1ccc(Cl)cc1 [Example A-390]	
172.1 to 173.1 °C	45.6 µM	> 25 µM	CC(C)(C)c1ccc(C(=O)C(=C2SCS2)c2ccncc2)cc1 [Example A-398]	
209.1 to 215.1 °C	4.77 µM	> 25 µM	Cc1ccc(C(=O)C(=C2SCS2)c2ccncc2)cc1 [Example A-400]	
176.6 to 176.7 °C	4.89 µM	> 25 µM	C=Cc1ccc(C(=O)C(=C2SCS2)c2ccncc2)cc1 [Example A-403]	
174.8 to 175 °C	4.13 µM	> 25 µM	CCc1ccc(C(=O)C(=C2SCS2)c2ccncc2)cc1 [Example A-404]	
167.1 to 167.5 °C	4.85 µM	> 25 µM	Cc1cc(C(=O)C(=C2SCS2)c2ccncc2)ccc1Br [Example A-405]	
168.6 to 168.7 °C	7.24 µM	> 25 µM	N#Cc1cccc(C(=O)C(=C2SCS2)c2ccncc2)c1 [Example A-406]	
243 to 246.8 °C	0.041 µM	5.07 µM	Cc1ccc(-c2[nH]nc(N3CCN(C)CC3)c2-c2ccncc2)cc1 [Example A-416, 1-[5-(4-methylphenyl)-4-(4-pyridinyl)-1H-pyrazol-3-yl]-4-methylpiperazine]	
> 300 °C	0.4 µM	0.68 µM	O=C1CN(Cc2ccccc2)CC(=O)N1c1[nH]nc(-c2ccc(Cl)cc2)c1-c1ccncc1 [Example A-428]	
262.9 °C	2.81 µM	4.61 µM	C[S+]([O-])c1[nH]nc(-c2ccc(F)cc2)c1-c1ccncc1 (stereo not shown) [Example A-436]	
> 300 °C	1.08 µM	> 25 µM	CC(C)(C)OC(=O)NCCOc1[nH]nc(-c2ccc(Cl)cc2)c1-c1ccncc1 [Example A-445]	
265.3 °C	0.9 µM	3.38 µM	COc1[nH]nc(-c2ccc(Cl)cc2)c1-c1ccncc1 [Example A-446]	
214.7 to 215.8 °C	2.87 µM	0.24 µM	COc1ccc(CSc2[nH]nc(-c3ccc(F)cc3)c2-c2ccncc2)cc1 [Example A-452]	
192.8 to 195.2 °C	0.4 µM	> 25 µM	COC(=O)CSc1[nH]nc(-c2ccc(Cl)cc2)c1-c1ccncc1 [Example A-457]	
220.9 to 221 °C	8.7 µM	> 25 µM	CC(C)(C)OC(=O)N1CCC(Sc2[nH]nc(-c3ccc(Cl)cc3)c2-c2ccncc2)CC1 [Example A-458]	
284 to 288.4 °C	1.66 µM	> 25 µM	CNC(=O)CSc1[nH]nc(-c2ccc(Cl)cc2)c1-c1ccncc1 [Example A-462]	
168.8 to 169.5 °C	1.66 µM	> 25 µM	CN(C)CCCNC(=O)CSc1[nH]nc(-c2ccc(Cl)cc2)c1-c1ccncc1 [Example A-463]	
216.7 to 216.9 °C	0.28 µM	5.11 µM	N#CCCCSc1[nH]nc(-c2ccc(Cl)cc2)c1-c1ccncc1 [Example A-475]	
212.7 to 213.2 °C	0.18 µM	0.49 µM	C#CCSc1[nH]nc(-c2ccc(Cl)cc2)c1-c1ccncc1 [Example A-478]	
207.3 to 208.1 °C	0.072 µM	2.97 µM	C=CCSc1[nH]nc(-c2ccc(Cl)cc2)c1-c1ccncc1 [Example A-479]	
186.8 to 187.8 °C		0.16 µM	NCCSc1[nH]nc(-c2ccc(Cl)cc2)c1-c1ccncc1 [Example A-480]	
211.9 to 213.2 °C	0.2 µM	> 25 µM	Clc1ccc(-c2n[nH]c(SCCc3c[nH]c4ccccc34)c2-c2ccncc2)cc1 [Example A-481]	
